Results taken from ChEMBL document CHEMBL4138247, “Synthesis of new triterpenic monomers and dimers as potential antiproliferative agents and their molecular docking studies” (Eur J Med Chem, 2018).

Assays:
Type in all cases: functional, cell-based
A-375 = test: Antiproliferative activity against human A375 cells after 96 hrs by SRB assay; conditions: A-375, 96 h
FaDu = test: Antiproliferative activity against human FADU cells after 96 hrs by SRB assay
A2780 = test: Antiproliferative activity against human A2780 cells after 96 hrs by SRB assay; conditions: A2780, 96 h
HT-29 = test: Antiproliferative activity against human HT-29 cells after 96 hrs by SRB assay; conditions: HT-29, 96 h

Row | IC50 (A-375) | IC50 (A2780) | IC50 (HT-29) | Structure (SMILES) | IC50 (FaDu)
1 | 15.5 µM | 20.7 µM | 10 µM | C/C(=C\CC/C(C)=C/CC[C@@H]1[C@@]2(C)CCC(=O)C(C)(C)[C@@H]2CC[C@@]1(C)O)CC/C=C(\C)C(=O)OCCOC(=O)/C(C)=C/CC/C(C)=C/CC/C(C)=C/CC[C@@H]1[C@@]2(C)CC[C@@H](O)C(C)(C)[C@@H]2CC[C@@]1(C)O | > 30 µM
2 | 10.6 µM | 16.1 µM | 8.2 µM | C/C(=C\CC/C(C)=C/CC[C@@H]1[C@@]2(C)CCC(=O)C(C)(C)[C@@H]2CC[C@@]1(C)O)CC/C=C(\C)C(=O)OCCCCOC(=O)/C(C)=C/CC/C(C)=C/CC/C(C)=C/CC[C@@H]1[C@@]2(C)CC[C@H](O)C(C)(C)[C@@H]2CC[C@@]1(C)O | 28.2 µM
3 | > 30 µM | > 30 µM | > 30 µM | C/C(=C\CC/C(C)=C/CC[C@@H]1[C@@]2(C)CCC(=O)C(C)(C)[C@@H]2CC[C@@]1(C)O)CC/C=C(\C)C(=O)OCCCOC(=O)[C@@]1(C)[C@H](O)CC[C@@]2(C)[C@H]1CC[C@]1(C)[C@@H]2C(=O)C=C2[C@@H]3[C@@H](C)[C@H](C)CC[C@]3(C)CC[C@]21C | > 30 µM
4 | 12.4 µM | 24.2 µM | 8.8 µM | C/C(=C\CC/C(C)=C/CC[C@@H]1[C@@]2(C)CCC(=O)C(C)(C)[C@@H]2CC[C@@]1(C)O)CC/C=C(\C)C(=O)OCCCCOC(=O)/C(C)=C/CC/C(C)=C/CC/C(C)=C/CC[C@@H]1[C@@]2(C)CCC(=O)C(C)(C)[C@@H]2CC[C@@]1(C)O | > 30 µM
5 | > 30 µM | > 30 µM | > 30 µM | C=C(C)[C@@H]1CC[C@]2(C(=O)OCCCCOC(=O)/C(C)=C/CC/C(C)=C/CC/C(C)=C/CC[C@@H]3[C@@]4(C)CCC(=O)C(C)(C)[C@@H]4CC[C@@]3(C)O)CC[C@]3(C)[C@H](CC[C@@H]4[C@@]5(C)CC[C@H](O)C(C)(C)[C@@H]5CC[C@]43C)[C@@H]12 | > 30 µM
6 | 11.1 µM | 14.8 µM | 6.8 µM | C/C(=C\CC/C(C)=C/CC[C@@H]1[C@@]2(C)CCC(=O)C(C)(C)[C@@H]2CC[C@@]1(C)O)CC/C=C(\C)C(=O)OCCCOC(=O)/C(C)=C/CC/C(C)=C/CC/C(C)=C/CC[C@@H]1[C@@]2(C)CC[C@@H](O)C(C)(C)[C@@H]2CC[C@@]1(C)O | 25.1 µM
7 | 24.5 µM | > 30 µM | 14 µM | C/C(=C\CC/C(C)=C/CC[C@@H]1[C@@]2(C)CCC(=O)C(C)(C)[C@@H]2CC[C@@]1(C)O)CC/C=C(\C)C(=O)OCCOC(=O)/C(C)=C/CC/C(C)=C/CC/C(C)=C/CC[C@@H]1[C@@]2(C)CCC(=O)C(C)(C)[C@@H]2CC[C@@]1(C)O | > 30 µM
8 | 10.4 µM | 16 µM | 5.4 µM | C/C(=C\CC/C(C)=C/CC[C@@H]1[C@@]2(C)CCC(=O)C(C)(C)[C@@H]2CC[C@@]1(C)O)CC/C=C(\C)C(=O)OCCCOC(=O)/C(C)=C/CC/C(C)=C/CC/C(C)=C/CC[C@@H]1[C@@]2(C)CCC(=O)C(C)(C)[C@@H]2CC[C@@]1(C)O | > 30 µM

More lines, now with the values behind:

Row | Structure (SMILES) | IC50 (A-375) | IC50 (A2780) | IC50 (HT-29) | IC50 (FaDu)
9 | C/C(=C\CC/C(C)=C/CC[C@@H]1[C@@]2(C)CCC(=O)C(C)(C)[C@@H]2CC[C@@]1(C)O)CC/C=C(\C)C(=O)OCCCBr | 11.8 µM | 18.1 µM | 8.1 µM | > 30 µM
10 | C=C(C)[C@@H]1CC[C@]2(C)CC[C@]3(C)[C@H](CC[C@@H]4[C@@]5(C)CC[C@@H](O)[C@](C)(C(=O)OCCCCBr)[C@@H]5CC[C@]43C)[C@@H]12 | 18 µM | > 30 µM | > 30 µM | > 30 µM
11 | C/C(=C\CC/C(C)=C/CC[C@@H]1[C@@]2(C)CCC(=O)C(C)(C)[C@@H]2CC[C@@]1(C)O)CC/C=C(\C)C(=O)OCCCCOC(=O)[C@@]1(C)[C@H](O)CC[C@@]2(C)[C@H]1CC[C@]1(C)[C@@H]2C(=O)C=C2[C@@H]3[C@@H](C)[C@H](C)CC[C@]3(C)CC[C@]21C | > 30 µM | > 30 µM | > 30 µM | > 30 µM
12 | C=C(C)[C@@H]1CC[C@]2(C)CC[C@]3(C)[C@H](CC[C@@H]4[C@@]5(C)CC[C@@H](O)[C@](C)(C(=O)OCCCBr)[C@@H]5CC[C@]43C)[C@@H]12 | 16.7 µM | 26.9 µM | 24.5 µM | 27.1 µM
13 | C/C(=C\CC/C(C)=C/CC[C@@H]1[C@@]2(C)CCC(=O)C(C)(C)[C@@H]2CC[C@@]1(C)O)CC/C=C(\C)C(=O)OCCBr | > 30 µM | > 30 µM | > 30 µM | > 30 µM
14 | C/C(=C\CC/C(C)=C/CC[C@@H]1[C@@]2(C)CCC(=O)C(C)(C)[C@@H]2CC[C@@]1(C)O)CC/C=C(\C)C(=O)OCCCCBr | 14.5 µM | 21.6 µM | 14.6 µM | > 30 µM
15 | C=C(C)[C@@H]1CC[C@]2(C)CC[C@]3(C)[C@H](CC[C@@H]4[C@@]5(C)CC[C@@H](O)[C@](C)(C(=O)OCCBr)[C@@H]5CC[C@]43C)[C@@H]12 | 17.4 µM | 29 µM | 23 µM | 26.4 µM
16 | C/C(=C\CC/C(C)=C/CC[C@@H]1[C@@]2(C)CCC(=O)C(C)(C)[C@@H]2CC[C@@]1(C)O)CC/C=C(\C)C(=O)OCCOC(=O)[C@@]1(C)[C@H](O)CC[C@@]2(C)[C@H]1CC[C@]1(C)[C@@H]2C(=O)C=C2[C@@H]3[C@@H](C)[C@H](C)CC[C@]3(C)CC[C@]21C | > 30 µM | > 30 µM | > 30 µM | > 30 µM
